What all share (format): in vivo
For assay [1], the system named is Beet Armyworm (BAW) (Spodoptera exigua). As to the kind of experiment: Bioassay on beet armyworm (BAW), 128-well diet tray assay, percent mortality. Particulars: for pest or weed control at 50 µg/cm2, 50 µg/cm2: Spodoptera exigua, 50 μg/cm^2. On the procedure: (§1) Certain molecules disclosed in this document were tested against BAW and CEW using procedures described in the following examples. In the reporting of the results, the “BAW & CEW Rating Table” was used (See Table Section).
Bioassays on BAW (Spodoptera exigua)
Bioassays on BAW were conducted using a 128-well diet tray assay. One to five second instar BAW larvae were placed in each well (3 mL) of the diet tray that had been previously filled with 1 mL of artificial diet to which 50 μg/cm^2 of the test compound (dissolved in 50 μL of 90:10 acetone-water mixture) had been applied (to each of eight wells) and then allowed to dry. Trays were covered with a clear self-adhesive cover and held at 25° C., 14:10 light-dark for five to seven days. Percent mortality was recorded for the larvae in each well; activity in the eight wells was then averaged. The results are indicated in the table entitled “Table 5: Biological Results” (See Table Section).

Assay [2] deals with Corn Earworm (CEW) (Helicoverpa zea). Briefly: Bioassay on corn earworm (CEW), 128-well diet tray assay, percent mortality. To be noted: for pest or weed control at 50 µg/cm2, 50 µg/cm2: Helicoverpa zea, 50 μg/cm^2. The method, then:
as §1
Bioassays on CEW (Helicoverpa zea)
Bioassays on CEW were conducted using a 128-well diet tray assay. One to five second instar CEW larvae were placed in each well (3 mL) of the diet tray that had been previously filled with 1 mL of artificial diet to which 50 μg/cm^2 of the test compound (dissolved in 50 μL of 90:10 acetone-water mixture) had been applied (to each of eight wells) and then allowed to dry. Trays were covered with a clear self-adhesive cover and held at 25° C., 14:10 light-dark for five to seven days. Percent mortality was recorded for the larvae in each well; activity in the eight wells was then averaged. The results are indicated in the table entitled “Table 5: Biological Results” (See Table Section).

The subject of assay [3] is Green Peach Aphid (GPA) (Myzus persicae). As to the kind of experiment: Bioassay on green peach aphid (GPA), foliar spray on cabbage seedlings, corrected % control. Particulars: 72 h, read-out: % Mortality GPA 200 ppm. The method, then: Certain molecules disclosed in this document were tested against GPA using procedures described in the following example. In the reporting of the results, the “GPA Rating Table” was used (See Table Section).
Cabbage seedlings grown in 3-inch pots, with 2-3 small (3-5 cm) true leaves, were used as test substrate. The seedlings were infested with 20-50 GPA (wingless adult and nymph stages) one day prior to chemical application. Four pots with individual seedlings were used for each treatment. Test compounds (2 mg) were dissolved in 2 mL of acetone/methanol (1:1) solvent, forming stock solutions of 1000 ppm test compound. […] A hand-held aspirator-type sprayer was used for spraying a solution to both sides of […] leaves until runoff. Reference plants (solvent check) were sprayed with the diluent only containing 20% by volume of acetone/methanol (1:1) solvent. Treated plants were held in a holding room for three days at approximately 25° C. and ambient relative humidity (RH) prior to grading. Evaluation was conducted by counting the number of live aphids per plant under a microscope.
Corrected % Control=100*(X−Y)/X • where • X=No. of live aphids on solvent check plants and • Y=No. of live aphids on treated plants
The results are indicated in the table entitled “Table 5: Biological Results” (See Table Section).

Consider `CC(C)c1ccccc1N1C(=NN=Cc2ccc(-c3ncn(-c4ccc(OC(F)(F)F)cc4)n3)cc2)SCC1(O)C(F)(F)F` (stereo in doubt) [Compound 246C, (Z)-3-(2-isopropylphenyl)-2-((E)-(4-(1-(4-(trifluoromethoxy)phenyl)-1H-1,2,4-triazol-3-yl)benzylidene)hydrazono)-4-(trifluoromethyl)thiazolidin-4-ol], for which the pest or weed control at 50 µg/cm2, 50 µg/cm2 in assay [1] and in assay [2] was 50 to 100% throughout.

In the case of `Cc1cccc(C)c1/N=C(/N/N=C/c1ccc(-c2ncn(-c3ccc(OC(F)(F)F)cc3)n2)cc1)SCC#C[Si](C)(C)C` [Compound 9C], the “% Mortality BAW 50 μg/cm^2” value in assay [1] is recorded as “A (50-100)”. Also, in assay [2], the “% Mortality CEW 50 μg/cm^2” value is given as “A (50-100)”.

Consider `COCCOC(C)C(=O)OCS/C(=N\c1c(C)cccc1C)N/N=C/c1ccc(-c2ncn(-c3ccc(OC(F)(F)F)cc3)n2)cc1` (stereo not drawn) [Compound 41C], for which the pest or weed control at 50 µg/cm2, 50 µg/cm2 in assay [1] and in assay [2] was 50 to 100% in each case.

As for `COCCOC(C)C(=O)OCS/C(=N\c1c(C)cc(OC)cc1C)N/N=C/c1ccc(-c2ncn(-c3ccc(OC(F)(F)F)cc3)n2)cc1` (stereo not drawn) [Compound 42C], the pest or weed control at 50 µg/cm2, 50 µg/cm2 in assay [1] and in assay [2] was 50 to 100% in each case.

For `COc1cc(C)c(/N=C(/N/N=C/c2ccc(-c3ncn(-c4ccc(OC(F)(F)C(F)(F)F)cc4)n3)cc2)SCC(=O)O)c(C)c1` [Compound 50C], the pest or weed control at 50 µg/cm2, 50 µg/cm2 in assay [1] and in assay [2] was 50 to 100% in each case.

For `COc1cc(C)c(N2C(=O)CS/C2=N\N=C\c2ccc(-c3ncn(-c4ccc(OC(F)(F)F)cc4)n3)cc2)c(C)c1` [Compound 69C], the pest or weed control at 50 µg/cm2, 50 µg/cm2 in assay [1] and in assay [2] was 50 to 100% throughout.

`Cc1cc(C)c(N2C(=O)CS/C2=N\N=C\c2ccc(-c3ncn(-c4ccc(OC(F)(F)F)cc4)n3)cc2)c(C)c1` [Compound 72C]: the pest or weed control at 200 ppm in assay [3] lay in the range of 0 to 80%. The pest or weed control at 50 µg/cm2, 50 µg/cm2 in assay [1] and in assay [2] was 50 to 100% each time.

For the molecule `CCN(CC)c1ccc(-c2cs/c(=N\N=Cc3ccc(-c4ncn(-c5ccc(OC(F)(F)F)cc5)n4)cc3)n2-c2c(C)cccc2C)cc1` [Compound 74C, 4-((2Z)-3-(2,6-dimethylphenyl)-2-((4-(1-(4-(trifluoromethoxy)phenyl)-1H-1,2,4-triazol-3-yl)benzylidene)hydrazono)-2,3-dihydrothiazol-4-yl)-N,N-diethylaniline], the pest or weed control at 50 µg/cm2, 50 µg/cm2 in assay [1] and in assay [2] was 50 to 100% throughout.

For `COc1ccc(N2C(=O)CS/C2=N\N=C\c2ccc(-c3ncn(-c4ccc(OC(F)(F)F)cc4)n3)cc2)cc1` [Compound 114C], the pest or weed control at 50 µg/cm2, 50 µg/cm2 in assay [1] and in assay [2] was 50 to 100% each time.

For the molecule `CC1S/C(=N\N=C\c2ccc(-c3ncn(-c4ccc(OC(F)(F)F)cc4)n3)cc2)N(c2c(F)cccc2Cl)C1=O` (stereo not drawn) [Compound 130C], the pest or weed control at 50 µg/cm2, 50 µg/cm2 in assay [1] and in assay [2] was 50 to 100% throughout.

Turning to `Cc1cccc(C)c1N1CCS/C1=N\N=C\c1ccc(-c2ncn(-c3ccc(OC(F)(F)F)cc3)n2)cc1` [Compound 141C], the pest or weed control at 50 µg/cm2, 50 µg/cm2 in assay [1] and in assay [2] was 50 to 100% throughout.

On to `Cc1ccccc1-n1c(C)cs/c1=N\N=C\c1ccc(-c2ncn(-c3ccc(OC(F)(F)F)cc3)n2)cc1` [Compound 173C], for which the pest or weed control at 50 µg/cm2, 50 µg/cm2 in assay [1] and in assay [2] was 50 to 100% each time.

For `CCc1cccc(C)c1N1CCCS/C1=N\N=C\c1ccc(-c2ncn(-c3ccc(OC(F)(F)F)cc3)n2)cc1` [Compound 180C], in assay [3], the pest or weed control at 200 ppm lay in the range of 0 to 80%. Moreover, the pest or weed control at 50 µg/cm2, 50 µg/cm2 in assay [1] and in assay [2] was 50 to 100% in each case.

For the molecule `CC(C)c1ccccc1N1CCCCC/S1=N\N=C\c1ccc(-c2ncn(-c3ccc(OC(F)(F)F)cc3)n2)cc1` (stereo not drawn) [Compound 212C], the pest or weed control at 50 µg/cm2, 50 µg/cm2 in assay [1] and in assay [2] was 50 to 100% throughout.

On to `CC1(O)CS/C(=N\N=C\c2ccc(-c3ncn(-c4ccc(OC(F)(F)F)cc4)n3)cc2)N1c1c(F)cccc1F` (stereo not drawn) [Compound 240C], for which the pest or weed control at 50 µg/cm2, 50 µg/cm2 in assay [1] and in assay [2] was 50 to 100% in each case.

On to `CC1(O)CS/C(=N\c2c(Cl)cccc2C(F)(F)F)N1/N=C/c1ccc(-c2ncn(-c3ccc(OC(F)(F)F)cc3)n2)cc1` (stereo not drawn) [Compound 241C, (Z)-2-((2-chloro-6-(trifluoromethyl)phenyl)imino)-4-methyl-3-((E)-(4-(1-(4-(trifluoromethoxy)phenyl)-1H-1,2,4-triazol-3-yl)benzylidene)amino)thiazolidin-4-ol], for which the pest or weed control at 50 µg/cm2, 50 µg/cm2 in assay [1] and in assay [2] was 50 to 100% in each case.

In the case of `CC(C)c1ccccc1N1/C(=N/N=C/c2ccc(-c3ncn(-c4ccc(OC(F)(F)F)cc4)n3)cc2)SCC1(C)O` (stereo not drawn) [Compound 242C], the pest or weed control at 200 ppm in assay [3] lay within 0 to 80%. The pest or weed control at 50 µg/cm2, 50 µg/cm2 in assay [1] and in assay [2] was 50 to 100% throughout.

Turning to `Cc1cccc(Cl)c1N1/C(=N/N=C/c2ccc(-c3ncn(-c4ccc(OC(F)(F)F)cc4)n3)cc2)SCC1(C)O` (stereo not drawn) [Compound 244C], the pest or weed control at 50 µg/cm2, 50 µg/cm2 in assay [1] and in assay [2] was 50 to 100% in each case.

As to `CCC(C)c1ccccc1N1/C(=N/N=C/c2ccc(-c3ncn(-c4ccc(OC(F)(F)F)cc4)n3)cc2)SCC1(O)C(F)(F)F` (stereo not drawn) [Compound 247C], the pest or weed control at 50 µg/cm2, 50 µg/cm2 in assay [1] and in assay [2] was 50 to 100% each time.

With `CC1(O)CS/C(=N\N=C\c2ccc(-c3ncn(-c4ccc(OC(F)(F)F)cc4)n3)cc2)N1c1ccccc1C1CCCC1` (stereo not drawn) [Compound 249C], the pest or weed control at 50 µg/cm2, 50 µg/cm2 in assay [1] and in assay [2] was 50 to 100% each time.

Take `Cc1cccc(N2/C(=N/N=C/c3ccc(-c4ncn(-c5ccc(OC(F)(F)F)cc5)n4)cc3)SCC2(C)O)c1C(C)C` (stereo not drawn) [Compound 252C]: the pest or weed control at 50 µg/cm2, 50 µg/cm2 in assay [1] and in assay [2] was 50 to 100% each time.

Take `Cc1ccc(C(C)C)c(N2/C(=N/N=C/c3ccc(-c4ncn(-c5ccc(OC(F)(F)F)cc5)n4)cc3)SCC2(C)O)c1` (stereo not drawn) [Compound 253C]: the pest or weed control at 50 µg/cm2, 50 µg/cm2 in assay [1] and in assay [2] was 50 to 100% each time.

On to `COc1cc(C)c(N2/C(=N/N=C/c3ccc(-c4ncn(-c5ccc(OC(F)(F)F)cc5)n4)cc3)SCC2(C)O)c(C)c1` (stereo not drawn) [Compound 255C], for which the pest or weed control at 50 µg/cm2, 50 µg/cm2 in assay [1] and in assay [2] was 50 to 100% throughout.

Turning to `CC(C)c1ccccc1N1/C(=N/N=C/c2ccc(-c3ncn(-c4ccc(OC(F)(F)F)cc4)n3)cc2)SC(C)C1(C)O` (stereo not drawn) [Compound 257C], the pest or weed control at 50 µg/cm2, 50 µg/cm2 in assay [1] and in assay [2] was 50 to 100% throughout.

As to `CC(C)c1cc(F)ccc1N1/C(=N/N=C/c2ccc(-c3ncn(-c4ccc(OC(F)(F)F)cc4)n3)cc2)SCC1(C)O` (stereo not drawn) [Compound 258C], the pest or weed control at 50 µg/cm2, 50 µg/cm2 in assay [1] and in assay [2] was 50 to 100% each time.

As to `CC(C)c1cc(F)c(F)cc1N1/C(=N/N=C/c2ccc(-c3ncn(-c4ccc(OC(F)(F)F)cc4)n3)cc2)SCC1(C)O` (stereo not drawn) [Compound 259C], the pest or weed control at 50 µg/cm2, 50 µg/cm2 in assay [1] and in assay [2] was 50 to 100% throughout.

`CC(C)c1ccccc1N1/C(=N/N=C/c2ccc(-c3ncn(-c4ccc(C(F)(C(F)(F)F)C(F)(F)F)cc4)n3)cc2)SCC1(C)O` (stereo not drawn) [Compound 260C]: the pest or weed control at 50 µg/cm2, 50 µg/cm2 in assay [1] and in assay [2] was 50 to 100% throughout.

Turning to `CC(C)c1ccccc1N1/C(=N/N=C/c2ccc(-c3ncn(-c4ccc(C(F)(F)F)cc4)n3)cc2)SCC1(C)O` (stereo not drawn) [Compound 261C], the pest or weed control at 50 µg/cm2, 50 µg/cm2 in assay [1] and in assay [2] was 50 to 100% in each case.

Take `CCc1cc(OC)ccc1N1/C(=N/N=C/c2ccc(-c3ncn(-c4ccc(OC(F)(F)C(F)(F)F)cc4)n3)cc2)SCC1(C)O` (stereo not drawn) [Compound 264C]: the pest or weed control at 50 µg/cm2, 50 µg/cm2 in assay [1] was 50 to 100%.

The values above are taken from patent US20160135464A1, “PESTICIDAL COMPOSITIONS AND PROCESSES RELATED THERETO” (Dow AgroSciences LLC, priority 2014, published 2016).
